Results published in patent US9797884B2, “Marker for determination of sensitivity to anticancer agent” (KEIO UNIVERSITY, priority 2011, dated 2017).

What was measured:
Type in all cases: cell-based, human
DLD-1 [1] = experiment: MTS assay cell viability, 48 hours L-OHP exposure; conditions: DLD-1, 48 hours exposure, read-out: IC50 value (L-OHP concentration at which cell growth is inhibited by 50%)
Source text: (§1) Ten human colorectal cancer cell lines (DLD-1, HCT15, HCT116, HT29, Lovo, LS174T, SW480, SW620, SW1116, and WiDr) were employed. HCT116 and HT29 were obtained from Kabushiki Kaisha Yakult Honsha. DLD-1, Lovo, SW480, SW1116, and WiDr were obtained from Dainippon Sumitomo Pharma Co., Ltd. HCT15 and LS174T were obtained from Cell Resource Center for Biomedical Research, Institute of Development, Aging and Cancer, Tohoku University. SW620 was obtained from Summit Pharmaceuticals International Corporation.
(§2) Cancer cells of each cell line were exposed to 0- to 1,000-μmol/L L-OHP for 48 hours and after drug exposure, cell viability was determined by means of an MTS assay (CellTiter96™ AQueous One Solution Cell Proliferation Assay, Promega). IC50 value (L-OHP concentration at which cell growth is inhibited by 50% as compared with L-OHP-non-treated sample) was calculated, and sensitivity of each cell line to L-OHP was evaluated by the IC50 value as an index.

HCT116 [2] = experiment: MTS assay cell viability, 48 hours L-OHP exposure; conditions: HCT116, 48 hours exposure, read-out: IC50 value (L-OHP concentration at which cell growth is inhibited by 50%)
Source text: as §1, §2

HCT15 = experiment: MTS assay cell viability, 48 hours L-OHP exposure
Source text: as §1, §2

HT29 = experiment: MTS assay cell viability, 48 hours L-OHP exposure; conditions: HT29, 48 hours exposure, read-out: IC50 value (L-OHP concentration at which cell growth is inhibited by 50%)
Source text: as §1, §2

LS174T = experiment: MTS assay cell viability, 48 hours L-OHP exposure
Source text: as §1, §2

Lovo = experiment: MTS assay cell viability, 48 hours L-OHP exposure; conditions: 48 hours exposure, read-out: IC50 value (L-OHP concentration at which cell growth is inhibited by 50%)
Source text: as §1, §2

SW1116 = experiment: MTS assay cell viability, 48 hours L-OHP exposure; conditions: SW1116, 48 hours exposure, read-out: IC50 value (L-OHP concentration at which cell growth is inhibited by 50%)
Source text: as §1, §2

SW480 = experiment: MTS assay cell viability, 48 hours L-OHP exposure; conditions: SW480, 48 hours exposure, read-out: IC50 value (L-OHP concentration at which cell growth is inhibited by 50%)
Source text: as §1, §2

SW620 = experiment: MTS assay cell viability, 48 hours L-OHP exposure
Source text: as §1, §2

WiDr = experiment: MTS assay cell viability, 48 hours L-OHP exposure; conditions: 48 hours exposure, read-out: IC50 value (L-OHP concentration at which cell growth is inhibited by 50%)
Source text: as §1, §2

HCT116 and DLD-1 cells = experiment: CE-TOFMS metabolomic analysis of intracellular metabolites after exposure to L-OHP; conditions: 10 μM L-OHP, 24-hour exposure
Procedure: Among the cell lines employed in Example 1, two human colorectal cancer cell lines (HCT116 and DLD-1) were employed. Cell culturing was performed by means of a φ100 mm/Tissue Culture Dish (IWAKI) with a medium (Dulbecco's modified Eagle's Medium (DMEM) containing 10% fetal bovine serum (product of Invitrogen) at 37° C. under 5% CO2 conditions.
The two colorectal cancer cells were exposed to L-OHP by changing the culture medium to a medium containing L-OHP at 10 μmol/L. The same culture was performed in an L-OHP-free medium (control group). After exposure to L-OHP (0 hr, 4 hr, 12 hr, 24 hr, and 48 hr), the cells were washed on ice with 5% mannitol (4° C.). Immediately thereafter, methanol (4° C., containing an internal standard) was added to the washed cells, to thereby inactivate present enzymes, and the cells were stored at −80° C. Separately, cells for cell count were provided in addition to the cells from which metabolites were extracted, and then subjected to the same treatment before performing cell count. The data were employed in correction of the cell counts. […]
Comprehensive analysis of intracellular metabolites was performed by means of a capillary electrophoresis-time-of-flight-type mass spectrometer (CE-TOFMS) (product of Agilent Technologies). […] Metabolites detected at m/z values of 50 to 1,000 were simultaneously quantitated.

HCT116 [3] = experiment: Sensitivity of colorectal cancer cells to 5-FU
DLD-1 [4] = experiment: Sensitivity of colorectal cancer cells to 5-FU

Row | sensitivity of the cell line to 5-FU (HCT116 [3]) | sensitivity of the cell line to 5-FU (DLD-1 [4]) | SMILES | IC50 (DLD-1 [1]) [µM] | IC50 (HCT116 [2]) [nM] | sensitivity group of the cell line to L-OHP on the basis of the MTS assay (HCT15) | IC50 (HT29) [µM] | sensitivity group of the cell line to L-OHP on the basis of the MTS assay (LS174T) | IC50 (Lovo) [nM] | IC50 (SW1116) [µM] | IC50 (SW480) [nM] | sensitivity group of the cell line to L-OHP on the basis of the MTS assay (SW620) | IC50 (WiDr) [µM] | ratio (HCT116/DLD-1) of IMP intracellular level after exposure relative to control group (HCT116 and DLD-1 cells; IMP) | ratio (HCT116/DLD-1) of intracellular level after exposure relative to control group, each metabolite (HCT116 and DLD-1 cells; dTMP, CMP, UMP, GMP, CDP, UDP, dCTP, CTP, UTP, GTP, NADP+, ATP and/or dGTP)
1 |  |  | O=C1[O][Pt]2([NH][C@@H]3CCCC[C@H]3[NH]2)[O]C1=O [L-OHP, (SP-4-2)-[(1R,2R)-cyclohexane-1,2-diamine-κN,κN′][ethanedioato (2-)-κO^1,κO^2]platinum] | 16.9 ± 6.31 | 890 ± 330 | high-sensitive | 23.9 ± 9.29 | low-sensitive | 720 ± 120 | 26.4 ± 4.12 | 650 ± 70 | high-sensitive | 17.3 ± 5.24 | 0.26 | ≥ 1.2
2 | high-sensitivity | low-sensitivity | O=c1[nH]cc(F)c(=O)[nH]1 [5-FU, fluorouracil] |  |  |  |  |  |  |  |  |  |  |  | 
